Data from patent US11970494B2, “6-heteroaryloxy benzimidazoles and azabenzimidazoles as JAK2 inhibitors” (Ajax Therapeutics, Inc., priority 2021, dated 2024).
pKd: −log10 of the molar value.

molecular target: T1, JAK2 (JH1 domain-catalytic, Y1007F,Y1008F) kinase (Homo sapiens, UniProt O60674, Y1007F/Y1008F); assay: JAK2 Binding Assay (JAK2 JH1 Domain Binding Assay); details: JAK2 JH1 domain binding, qPCR detection; read-out: JAK2 Kd
T1 construct: made in house; host or cells: transiently transfected HEK293 cells
T1 sequence (O60674 849-1124 Y1007F/Y1008F limits assumed): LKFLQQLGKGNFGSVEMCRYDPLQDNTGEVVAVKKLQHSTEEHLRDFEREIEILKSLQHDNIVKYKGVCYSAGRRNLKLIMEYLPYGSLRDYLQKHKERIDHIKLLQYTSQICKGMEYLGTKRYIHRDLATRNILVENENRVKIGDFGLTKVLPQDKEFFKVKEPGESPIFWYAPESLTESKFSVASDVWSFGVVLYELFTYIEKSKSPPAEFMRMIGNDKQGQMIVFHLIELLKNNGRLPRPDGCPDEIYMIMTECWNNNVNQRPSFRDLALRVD

First: CC(=O)Nc1cc(Oc2cnc3nc(Nc4cc(C(F)(F)F)n(C5CC6(COC6)C5)n4)n(C)c3c2C#N)ccn1 [Example I-106, N-(4-((2-((1-(2-oxaspiro[3.3]heptan-6-yl)-5-(trifluoromethyl)-1H-pyrazol-3-yl)amino)-7-cyano-1-methyl-1H-imidazo[4,5-b]pyridin-6-yl)oxy)pyridin-2-yl)acetamide]
Second: COCC(=O)Nc1cc(Oc2cnc3nc(Nc4cc(C(F)(F)F)n(C5CC6(CCOCC6)C5)n4)n(C)c3c2C#N)ccn1 [Example I-110, N-(4-((2-((1-(7-oxaspiro[3.5]nonan-2-yl)-5-(trifluoromethyl)-1H-pyrazol-3-yl)amino)-7-cyano-1-methyl-1H-imidazo[4,5-b]pyridin-6-yl)oxy)pyridin-2-yl)-2-methoxyacetamide]
The pKd of the first is lower: 7.30 to 8.00 for the first, over 8.00 for the second.

Compared with `COCC(=O)Nc1cc(Oc2cnc3nc(Nc4cc(C(F)(F)F)n(C5CC6(CCOCC6)C5)n4)n(C)c3c2Cl)ccn1` [Example I-107, N-(4-((2-((1-(7-oxaspiro[3.5]nonan-2-yl)-5-(trifluoromethyl)-1H-pyrazol-3-yl)amino)-7-chloro-1-methyl-1H-imidazo[4,5-b]pyridin-6-yl)oxy)pyridin-2-yl)-2-methoxyacetamide], `CC(=O)Nc1cc(Oc2cnc3nc(Nc4cc(N5CCCC5)nc(C(F)(F)F)c4)n(C)c3c2Cl)ccn1` [Example I-111, N-(4-((7-chloro-1-methyl-2-((2-(pyrrolidin-1-yl)-6-(trifluoromethyl)pyridin-4-yl)amino)-1H-imidazo[4,5-b]pyridin-6-yl)oxy)pyridin-2-yl)acetamide] is lower in pKd: 7.30 to 8.00 for the first, 6.00 to 7.30 for the second.

First: CC(=O)Nc1cc(Oc2cnc3nc(Nc4cc5n(n4)CCOC5(C)C)n(C)c3c2C#N)ccn1 [Example I-112, N-(4-((7-cyano-2-((4,4-dimethyl-6,7-dihydro-4H-pyrazolo[5,1-c][1,4]oxazin-2-yl)amino)-1-methyl-1H-imidazo[4,5-b]pyridin-6-yl)oxy)pyridin-2-yl)acetamide]
Second: CC(=O)Nc1cc(Oc2cnc3nc(Nc4cc5n(n4)CCN(C)C54CC4)n(C)c3c2C#N)ccn1 [Example I-119]
The pKd of the first is higher: over 8.00 for the first, 7.30 to 8.00 for the second.

`CC(=O)Nc1cc(Oc2cnc3nc(Nc4cc5n(n4)CCC54CCC4)n(C)c3c2C#N)ccn1` [Example I-113, N-(4-((7-cyano-2-((5′,6′-dihydrospiro[cyclobutane-1,4′-pyrrolo[1,2-b]pyrazol]-2′-yl)amino)-1-methyl-1H-imidazo[4,5-b]pyridin-6-yl)oxy)pyridin-2-yl)acetamide] and `Cn1c(Nc2cc3n(n2)CCC32CCC2)nc2ncc(Oc3ccnc(NC(=O)O[C@H]4CCOC4)c3)c(C#N)c21` [Example I-120, (S)-tetrahydrofuran-3-yl(4-((7-cyano-2-((5′,6′-dihydrospiro[cyclobutane-1,4′-pyrrolo[1,2-b]pyrazol]-2′-yl)amino)-1-methyl-1H-imidazo[4,5-b]pyridin-6-yl)oxy)pyridin-2-yl)carbamate] cannot be ordered by pKd: over 8.00 for the first, over 8.00 for the second.

`CC(=O)Nc1cc(Oc2cnc3nc(Nc4cc5n(n4)CCN5C(C)(C)C)n(C)c3c2C#N)ccn1` [Example I-115, N-(4-((2-((1-(tert-butyl)-2,3-dihydro-1H-imidazo[1,2-b]pyrazol-6-yl)amino)-7-cyano-1-methyl-1H-imidazo[4,5-b]pyridin-6-yl)oxy)pyridin-2-yl)acetamide] and `Cn1c(Nc2cc3n(n2)CCC32CCC2)nc2ncc(Oc3ccnc(NC(=O)O[C@@H]4CCOC4)c3)c(C#N)c21` [Example I-121, (R)-tetrahydrofuran-3-yl (4-((7-cyano-2-((5′,6′-dihydrospiro[cyclobutane-1,4′-pyrrolo[1,2-b]pyrazol]-2′-yl)amino)-1-methyl-1H-imidazo[4,5-b]pyridin-6-yl)oxy)pyridin-2-yl)carbamate] cannot be ordered by pKd: over 8.00 for the first, over 8.00 for the second.

With `Cn1cc(C(F)(F)F)cc(Nc2nc3ncc(Oc4ccnc(NC(=O)NC5COC5)c4)c(C#N)c3n2C)c1=O` [Example I-123, 1-(4-((7-cyano-1-methyl-2-((1-methyl-2-oxo-5-(trifluoromethyl)-1,2-dihydropyridin-3-yl)amino)-1H-imidazo[4,5-b]pyridin-6-yl)oxy)pyridin-2-yl)-3-(oxetan-3-yl)urea] the pKd was over 8.00.

system: not listed separately; assay: Caco2 Permeability Assay; format: in vitro ADME; details: human, pH 7.4, Caco-2, 5 μM, read-out: Efflux Ratio (ER)
Description: Preparation of Caco-2 Cells: 50 μL and 25 mL of cell culture medium are added to each well of a Transwell® insert and reservoir, respectively. Then, the HTS Transwell® plates are incubated at 37° C., 5% CO2 for 1 hour before cell seeding. Caco-2 cell cells are diluted to 6.86×10^5 cells/mL with culture medium, and 50 μL of cell suspension are dispensed into the filter well of the 96-well HTS Transwell® plate. Cells are cultivated for 14-18 days in a cell culture incubator at 37° C., 5% CO2, 95% relative humidity. Cell culture medium is replaced every other day, beginning no later than 24 hours after initial plating.
Preparation of Stock Solutions: 10 mM stock solutions of test compounds are prepared in DMSO. The stock solutions of positive controls are prepared in DMSO at the concentration of 10 mM. Digoxin and propranolol are used as control compounds in this assay.
Assessment of Cell Monolayer Integrity: Medium is removed from the reservoir and each Transwell® insert and is replaced with prewarmed fresh culture medium. Transepithelial electrical resistance (TEER) across the monolayer is measured using Millicell Epithelial Volt-Ohm measuring system (Millipore, USA). The Plate is returned to the incubator once the measurement is done. The TEER value is calculated according to the following equation: TEER measurement (ohms)×Area of membrane (cm^2)=TEER value (ohm⋅cm^2). A TEER value greater than 230 ohm⋅cm^2 indicates a well-qualified Caco-2 monolayer.
Assay Procedure: The Caco-2 plate is removed from the incubator and washed twice with pre-warmed HBSS (10 mM HEPES, pH 7.4), and then incubated at 37° C. for 30 minutes. The stock solutions of control compounds are diluted in DMSO to get 1 mM solutions and then diluted with HBSS (10 mM HEPES, pH 7.4) to get 5 μM working solutions. The stock solutions of the test compounds are diluted in DMSO to get 1 mM solutions and then diluted with HBSS (10 mM HEPES and 4% BSA, pH 7.4) to get 5 μM working solutions. The final concentration of DMSO in the incubation system is 0.5%. To determine the rate of drug transport in the apical to basolateral direction. 75 μL of 5 μM working solutions of test compounds are added to the Transwell® insert (apical compartment) and the wells in the receiver plate (basolateral compartment) are filled with 235 μL of HBSS (10 mM HEPES and 4% BSA, pH 7.4). To determine the rate of drug transport in the basolateral to apical direction, 235 μL of 5 μM working solutions of test compounds are added to the receiver plate wells (basolateral compartment) and then the Transwell® inserts (apical compartment) are filled with 75 μL of HBSS (10 mM HEPES and 4% BSA, pH 7.4). Time 0 samples are prepared by transferring 50 μL of 5 μM working solution to wells of the 96-deepwell plate, followed by the addition of 200 μL cold methanol containing appropriate internal standards (IS). The plates are incubated at 37° C. for 2 hours. At the end of the incubation, 50 μL samples from donor sides (apical compartment for Ap→*Bl flux, and basolateral compartment for Bl→Ap) and receiver sides (basolateral compartment for Ap→Bl flux, and apical compartment for Bl→Ap) are transferred to wells of a new 96-well plate, followed by the addition of 4 volume of cold acetonitrile or methanol containing appropriate internal standards (IS). Samples are vortexed for 5 minutes and then centrifuged at 3,220 g for 40 minutes. An aliquot of 100 μL of the supernatant is mixed with an appropriate volume of ultra-pure water before LC-MS/MS analysis. To determine the Lucifer Yellow leakage after 2 hour transport period, stock solution of Lucifer yellow is prepared in ultra-pure water and diluted with HBSS (10 mM HEPES, pH 7.4) to reach the final concentration of 100 μM. 100 μL of the Lucifer yellow solution is added to each Transwell® insert (apical compartment), followed by filling the wells in the receiver plate (basolateral compartment) with 300 μL of HBSS (10 mM HEPES, pH 7.4). […]

`Cn1c(Nc2cc3n(n2)CCCC3(F)F)nc2ncc(Oc3ccnc(NC(=O)N4CCC4)c3)c(C#N)c21` [Example I-30] gave an efflux ratio at 2 h, 5 μM of 2 to 5.

same assay, conditions: human, pH 7.4, Caco-2, apical to basolateral, 5 μM

Work on `Cn1c(Nc2cc3n(n2)CCCC3(F)F)nc2ncc(Oc3ccnc(NC(=O)N4CCC4)c3)c(C#N)c21` [Example I-30] yielded a Papp A→B at 2 h, 5 μM of 3 ×10⁻⁶ cm/s.
